#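 96-well plates; 48 h exposure; 5 concentrations. Endpoints by linear interpolation between flanking doses. Not reached: highest tested concentration assigned. At the TGI there is no net growth.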
# Legend:
# Assay in all cases: NCI tumour cell line growth inhibition, 48 h
# 786-0 renal = test system: 786-0 renal
# A498 renal = test system: A498 renal
# A549 NSCLC = test system: A549 NSCLC
# ACHN renal = test system: ACHN renal
# CAKI-1 renal = test system: CAKI-1 renal
# CCRF-CEM leukemia = test system: CCRF-CEM leukemia
# COLO 205 colon = test system: COLO 205 colon
# DLD-1 colon = test system: DLD-1 colon
# DMS 114 small cell lung = test system: DMS 114 small cell lung
# DMS 273 small cell lung = test system: DMS 273 small cell lung
# EKVX NSCLC = test system: EKVX NSCLC
# HCC-2998 colon = test system: HCC-2998 colon
# HCT-116 colon = test system: HCT-116 colon
# HCT-15 colon = test system: HCT-15 colon
# HL-60(TB) leukemia = test system: HL-60(TB) leukemia
# HOP-18 NSCLC = test system: HOP-18 NSCLC
# HOP-62 NSCLC = test system: HOP-62 NSCLC
# HOP-92 NSCLC = test system: HOP-92 NSCLC
# HT29 colon = test system: HT29 colon
# IGROV1 ovarian = test system: IGROV1 ovarian
# K-562 leukemia = test system: K-562 leukemia
# KM12 colon = test system: KM12 colon
# KM20L2 colon = test system: KM20L2 colon
# LOX IMVI melanoma = test system: LOX IMVI melanoma
# LXFL 529 NSCLC = test system: LXFL 529 NSCLC
# M14 melanoma = test system: M14 melanoma
# M19-MEL melanoma = test system: M19-MEL melanoma
# MALME-3M melanoma = test system: MALME-3M melanoma
# MOLT-4 leukemia = test system: MOLT-4 leukemia
# NCI-H226 lung = test system: NCI-H226 lung
# NCI-H23 lung = test system: NCI-H23 lung
# NCI-H460 lung = test system: NCI-H460 lung
# NCI-H522 lung = test system: NCI-H522 lung
# OVCAR-3 ovarian = test system: OVCAR-3 ovarian
# OVCAR-4 ovarian = test system: OVCAR-4 ovarian
# OVCAR-5 ovarian = test system: OVCAR-5 ovarian
# OVCAR-8 ovarian = test system: OVCAR-8 ovarian
# RPMI-8226 leukemia = test system: RPMI-8226 leukemia
# RXF-631 renal = test system: RXF-631 renal
# SF-268 CNS = test system: SF-268 CNS
# SF-295 CNS = test system: SF-295 CNS
# SF-539 CNS = test system: SF-539 CNS
# SK-MEL-2 melanoma = test system: SK-MEL-2 melanoma
# SK-OV-3 ovarian = test system: SK-OV-3 ovarian
# SN12C renal = test system: SN12C renal
# SNB-19 CNS = test system: SNB-19 CNS
# SNB-78 CNS = test system: SNB-78 CNS
# SW-620 colon = test system: SW-620 colon
# TK-10 renal = test system: TK-10 renal
# U251 CNS = test system: U251 CNS
# UACC-257 melanoma = test system: UACC-257 melanoma
# UACC-62 melanoma = test system: UACC-62 melanoma
# UO-31 renal = test system: UO-31 renal
# XF 498 CNS = test system: XF 498 CNS
# RXF 393 renal = test system: RXF 393 renal
# SK-MEL-28 melanoma = test system: SK-MEL-28 melanoma
# SK-MEL-5 melanoma = test system: SK-MEL-5 melanoma
# SNB-75 CNS = test system: SNB-75 CNS
smiles,measurement,setting,value
COc1ccc(NC(=O)CC/C(CC(=O)c2ccco2)=N/NC(N)=S)cc1,TGI,786-0 renal,> 100 µM
same,TGI,A498 renal,> 100 µM
same,TGI,A549 NSCLC,> 100 µM
same,TGI,ACHN renal,> 100 µM
same,TGI,CAKI-1 renal,> 100 µM
same,TGI,CCRF-CEM leukemia,> 100 µM
same,TGI,COLO 205 colon,> 100 µM
same,TGI,DLD-1 colon,> 100 µM
same,TGI,DMS 114 small cell lung,> 100 µM
same,TGI,DMS 273 small cell lung,> 100 µM
same,TGI,EKVX NSCLC,> 100 µM
same,TGI,HCC-2998 colon,> 100 µM
same,TGI,HCT-116 colon,> 100 µM
same,TGI,HCT-15 colon,> 100 µM
same,TGI,HL-60(TB) leukemia,> 100 µM
same,TGI,HOP-18 NSCLC,> 100 µM
same,TGI,HOP-62 NSCLC,> 100 µM
same,TGI,HOP-92 NSCLC,> 100 µM
same,TGI,HT29 colon,> 100 µM
same,TGI,IGROV1 ovarian,> 100 µM
same,TGI,K-562 leukemia,> 100 µM
same,TGI,KM12 colon,> 100 µM
same,TGI,KM20L2 colon,> 100 µM
same,TGI,LOX IMVI melanoma,> 100 µM
same,TGI,LXFL 529 NSCLC,> 100 µM
same,TGI,M14 melanoma,> 100 µM
same,TGI,M19-MEL melanoma,> 100 µM
same,TGI,MALME-3M melanoma,> 100 µM
same,TGI,MOLT-4 leukemia,> 100 µM
same,TGI,NCI-H226 lung,> 100 µM
same,TGI,NCI-H23 lung,> 100 µM
same,TGI,NCI-H460 lung,> 100 µM
same,TGI,NCI-H522 lung,> 100 µM
same,TGI,OVCAR-3 ovarian,> 100 µM
same,TGI,OVCAR-4 ovarian,> 100 µM
same,TGI,OVCAR-5 ovarian,> 100 µM
same,TGI,OVCAR-8 ovarian,> 100 µM
same,TGI,RPMI-8226 leukemia,> 100 µM
same,TGI,RXF-631 renal,> 100 µM
same,TGI,SF-268 CNS,> 100 µM
same,TGI,SF-295 CNS,> 100 µM
same,TGI,SF-539 CNS,> 100 µM
same,TGI,SK-MEL-2 melanoma,> 100 µM
same,TGI,SK-OV-3 ovarian,> 100 µM
same,TGI,SN12C renal,> 100 µM
same,TGI,SNB-19 CNS,> 100 µM
same,TGI,SNB-78 CNS,> 100 µM
same,TGI,SW-620 colon,> 100 µM
same,TGI,TK-10 renal,> 100 µM
same,TGI,U251 CNS,> 100 µM
same,TGI,UACC-257 melanoma,> 100 µM
same,TGI,UACC-62 melanoma,> 100 µM
same,TGI,UO-31 renal,> 100 µM
same,TGI,XF 498 CNS,> 100 µM
O=C(c1ccccc1)C(c1ccccc1)C1(O)C(=O)Nc2ccc([N+](=O)[O-])cc21 (stereo not given),TGI,786-0 renal,> 100 µM
same,TGI,A498 renal,> 100 µM
same,TGI,A549 NSCLC,> 100 µM
same,TGI,ACHN renal,> 100 µM
same,TGI,CAKI-1 renal,> 100 µM
same,TGI,CCRF-CEM leukemia,> 100 µM
same,TGI,COLO 205 colon,> 100 µM
same,TGI,DLD-1 colon,> 100 µM
same,TGI,DMS 114 small cell lung,79.3 µM
same,TGI,EKVX NSCLC,> 100 µM
same,TGI,HCC-2998 colon,> 100 µM
same,TGI,HCT-116 colon,> 100 µM
same,TGI,HCT-15 colon,> 100 µM
same,TGI,HL-60(TB) leukemia,> 100 µM
same,TGI,HOP-62 NSCLC,> 100 µM
same,TGI,HOP-92 NSCLC,> 100 µM
same,TGI,IGROV1 ovarian,> 100 µM
same,TGI,K-562 leukemia,> 100 µM
same,TGI,KM20L2 colon,> 100 µM
same,TGI,LOX IMVI melanoma,> 100 µM
same,TGI,LXFL 529 NSCLC,> 100 µM
same,TGI,M14 melanoma,> 100 µM
same,TGI,M19-MEL melanoma,72.2 µM
same,TGI,MALME-3M melanoma,> 100 µM
same,TGI,MOLT-4 leukemia,> 100 µM
same,TGI,NCI-H226 lung,> 100 µM
same,TGI,NCI-H23 lung,> 100 µM
same,TGI,NCI-H460 lung,> 100 µM
same,TGI,NCI-H522 lung,> 100 µM
same,TGI,OVCAR-4 ovarian,> 100 µM
same,TGI,OVCAR-5 ovarian,> 100 µM
same,TGI,OVCAR-8 ovarian,> 100 µM
same,TGI,RPMI-8226 leukemia,> 100 µM
same,TGI,RXF 393 renal,> 100 µM
same,TGI,RXF-631 renal,> 100 µM
same,TGI,SF-268 CNS,> 100 µM
same,TGI,SF-539 CNS,> 100 µM
same,TGI,SK-MEL-2 melanoma,> 100 µM
same,TGI,SK-MEL-28 melanoma,> 100 µM
same,TGI,SK-MEL-5 melanoma,57.7 µM
same,TGI,SK-OV-3 ovarian,79.7 µM
same,TGI,SN12C renal,> 100 µM
same,TGI,SNB-19 CNS,> 100 µM
same,TGI,SNB-75 CNS,> 100 µM
same,TGI,SNB-78 CNS,> 100 µM
same,TGI,SW-620 colon,> 100 µM
same,TGI,TK-10 renal,> 100 µM
same,TGI,U251 CNS,> 100 µM
same,TGI,UACC-62 melanoma,> 100 µM
same,TGI,UO-31 renal,> 100 µM
same,TGI,XF 498 CNS,> 100 µM

# — PubChem BioAssay (NCI)
